This passage reports IC50 results from patent US11820766B2, “Monoacylglycerol lipase modulators” (Janssen Pharmaceutica NV, priority 2018, dated 2023).

In general, IC50 refers to the concentration needed to halve the response being measured. Low readings indicate greater potency in that assay, high ones weaker potency in that assay.

The first assay has as its target T1, human MGL from HeLa cells (Homo sapiens, UniProt Q99685).
T1 construct: combining endogenously expressed MGL from HeLa cells with test compounds; endogenous in cells; host or cells: HeLa cells / cell homogenates
T1 sequence (Q99685 1-303): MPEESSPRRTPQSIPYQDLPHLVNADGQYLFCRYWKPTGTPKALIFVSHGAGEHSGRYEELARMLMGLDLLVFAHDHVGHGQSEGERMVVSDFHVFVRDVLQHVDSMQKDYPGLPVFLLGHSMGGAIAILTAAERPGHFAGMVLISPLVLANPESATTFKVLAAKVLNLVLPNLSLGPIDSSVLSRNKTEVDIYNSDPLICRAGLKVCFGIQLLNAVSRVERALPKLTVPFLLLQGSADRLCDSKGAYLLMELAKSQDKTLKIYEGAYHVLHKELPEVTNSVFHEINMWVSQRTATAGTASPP
The assay can be described thus: In vitro MGL activity assay: [glycerol-1,3-3H]-oleyl glycerol cleavage by MGL from HeLa cells. Particulars: 300 nM [Glycerol-1,3-3H]-oleyl glycerol, one hour. The class given is biochemical. The text has this: MGL is the predominant hydrolase in HeLa cells/cell homogenates.
Consider `C[C@H]1c2nn(C)c(-c3ccnc(C(F)(F)F)c3)c2CCN1C(=O)c1ccc2ncccc2c1` [Example 523, [(7S)-2,7-Dimethyl-3-[2-(trifluoromethyl)-4-pyridyl]-5,7-dihydro-4H-pyrazolo[3,4-c]pyridin-6-yl]-(6-quinolyl)methanone], for which it took 417 nM to reach half-maximal inhibition (IC50). In turn, `Cc1cc(C)n2ccc(C(=O)N3CCc4c(nn(C)c4-c4cc(F)c(F)c(F)c4)[C@@H]3C)c2n1` [Example 417, (2,4-Dimethylpyrrolo[1,2-a]pyrimidin-8-yl)-[(7S)-2,7-dimethyl-3-(3,4,5-trifluorophenyl)-5,7-dihydro-4H-pyrazolo[3,4-c]pyridin-6-yl] methanone] yielded an IC50 of 126 nM. In turn, `C[C@H]1c2nn(C)c(-c3cc(F)c(F)c(F)c3)c2CCN1C(=O)c1n[nH]c2cc(F)ccc12` [Example 363, [(7S)-2,7-Dimethyl-3-(3,4,5-trifluorophenyl)-5,7-dihydro-4H-pyrazolo[3,4-c]pyridin-6-yl]-(6-fluoro-1H-indazol-3-yl)methanone] had an IC50 of 44.1 nM. The compound `Cc1cc(F)cc(-c2c3c(nn2C)[C@H](C)N(C(=O)c2c(C)nc4ccccn24)CC3)c1` [Example 396, [(7S)-3-(3-Fluoro-5-methyl-phenyl)-2,7-dimethyl-5,7-dihydro-4H-pyrazolo[3,4-c]pyridin-6-yl]-(2-methylimidazo[1,2-a]pyridin-3-yl)methanone] gave an IC50 of 5.04 nM.

Regarding `Cc1cnn2c(C(=O)N3CCc4c(nn(C)c4-c4cc(F)c(F)c(F)c4)[C@@H]3C)c(C)nc2c1` [Example 457, (2,7-Dimethylimidazo[1,2-b]pyridazin-3-yl)-[(7S)-2,7-dimethyl-3-(3,4,5-trifluorophenyl)-5,7-dihydro-4H-pyrazolo[3,4-c]pyridin-6-yl] methanone], half-maximal inhibition (IC50) was put at 39.4 nM.

`C[C@H]1c2nn(C)c(-c3cc(F)c(F)c(F)c3)c2CCN1C(=O)c1cnn2c1CCCC2` [Example 552, [(7S)-2,7-Dimethyl-3-(3,4,5-trifluorophenyl)-5,7-dihydro-4H-pyrazolo[3,4-c]pyridin-6-yl]-(4,5,6,7-tetrahydropyrazolo[1,5-a]pyridin-3-yl)methanone] yielded an IC50 of 40.4 nM. `Cc1ccn2c(C(=O)N3CCc4c(nn(C)c4-c4cc(F)c(F)c(F)c4)[C@@H]3C)c(C)nc2c1` [Example 404, (2,7-Dimethylimidazo[1,2-a]pyridin-3-yl)-[(7S)-2,7-dimethyl-3-(3,4,5-trifluorophenyl)-5,7-dihydro-4H-pyrazolo[3,4-c]pyridin-6-yl]methanone]: half-maximal inhibition (IC50) required 50.5 nM.

As to `[2H]c1cnc2cc(C(=O)N3CCc4c(nn(C)c4-c4cc(F)c(F)c(F)c4)[C@@H]3C)ccc2n1` [Example 483, (2-Deuterioquinoxalin-6-yl)-[(7S)-2,7-dimethyl-3-(3,4,5-trifluorophenyl)-5,7-dihydro-4H-pyrazolo[3,4-c]pyridin-6-yl]methanone], the IC50 turned out to be 10.2 nM.

Take `C[C@H]1c2nn(C)c(-c3cc(F)c(F)c(F)c3)c2CCN1C(=O)c1ncnc2c1ccn2C` [Example 466, [(7S)-2,7-Dimethyl-3-(3,4,5-trifluorophenyl)-5,7-dihydro-4H-pyrazolo[3,4-c]pyridin-6-yl]-(7-methylpyrrolo[2,3-d]pyrimidin-4-yl)methanone]: the IC50 came out at 5.86 nM. The compound `Cc1nc2cc(F)ccn2c1C(=O)N1CCc2c(nn(C)c2-c2cc(F)c(F)c(F)c2)[C@@H]1C` [Example 402, [(7S)-2,7-Dimethyl-3-(3,4,5-trifluorophenyl)-5,7-dihydro-4H-pyrazolo[3,4-c]pyridin-6-yl]-(7-fluoro-2-methyl-imidazo[1,2-a]pyridin-3-yl)methanone] yielded an IC50 of 21.6 nM. The same measure, in the same setting: next, `Cc1c(C(=O)N2CCc3c(nn(C)c3-c3cc(F)c(F)c(F)c3)[C@@H]2C)nn2c1OCCC2` [Example 555, [(7S)-2,7-Dimethyl-3-(3,4,5-trifluorophenyl)-5,7-dihydro-4H-pyrazolo[3,4-c]pyridin-6-yl]-(3-methyl-6,7-dihydro-5H-pyrazolo[5,1-b][1,3]oxazin-2-yl)methanone]: 183 nM; `C[C@H]1c2nn(C)c(-c3cc(F)c(F)c(F)c3)c2CCN1C(=O)c1ccc2nccc(Br)c2c1` [Example 547, (4-Bromo-6-quinolyl)-[(7S)-2,7-dimethyl-3-(3,4,5-trifluorophenyl)-5,7-dihydro-4H-pyrazolo[3,4-c]pyridin-6-yl]methanone]: 5.62 nM.

Consider `Cc1ccc2c(C(=O)N3CCc4c(nn(C)c4-c4cc(F)c(F)c(F)c4)[C@@H]3C)c[nH]c2c1` [Example 360, [(7S)-2,7-Dimethyl-3-(3,4,5-trifluorophenyl)-5,7-dihydro-4H-pyrazolo[3,4-c]pyridin-6-yl]-(6-methyl-1H-indol-3-yl)methanone], for which the IC50 was 46.8 nM. As for `Cc1ccccc1-c1c2c(nn1C)[C@H](C)N(C(=O)c1ccc3ncccc3c1)CC2` [Example 492, [(7S)-2,7-Dimethyl-3-(o-tolyl)-5,7-dihydro-4H-pyrazolo[3,4-c]pyridin-6-yl]-(6-quinolyl)methanone], the IC50 worked out at 220 nM. Same read-out and setting: next, `COc1ncc(-c2c3c(nn2C)[C@H](C)N(C(=O)c2ccc4ncccc4c2)CC3)cc1C` [Example 529, [(7S)-3-(6-Methoxy-5-methyl-3-pyridyl)-2,7-dimethyl-5,7-dihydro-4H-pyrazolo[3,4-c]pyridin-6-yl]-(6-quinolyl)methanone]: 320 nM; `COc1nccc(C(=O)N2CCc3c(nn(C)c3-c3ccc(F)c(C)c3)[C@@H]2C)c1C` [Example 598, [(7S)-3-(4-Fluoro-3-methyl-phenyl)-2,7-dimethyl-5,7-dihydro-4H-pyrazolo[3,4-c]pyridin-6-yl]-(2-methoxy-3-methyl-4-pyridyl)methanone]: 29.9 nM.

Still in this assay, the particulars now being: 300 nM [Glycerol-1,3-3H]-oleyl glycerol, one hour incubation.
The compound `Cc1cc(C(=O)N2CCc3c(nn(C)c3-c3cc(F)c(F)c(F)c3)[C@@H]2C)cc(-n2cnnc2)c1` [Example 293, [(7S)-2,7-Dimethyl-3-(3,4,5-trifluorophenyl)-5,7-dihydro-4H-pyrazolo[3,4-c]pyridin-6-yl]-[3-methyl-5-(1,2,4-triazol-4-yl)phenyl]methanone] displayed an IC50 of 63 nM. Still for that read-out and setting: next, `C[C@H]1c2nn(C)c(-c3cncc(C(F)(F)F)c3)c2CCN1C(=O)c1ccc2nccnc2c1` [Example 248, (S)-(2,7-Dimethyl-3-(5-(trifluoromethyl)pyridin-3-yl)-2,4,5,7-tetrahydro-6H-pyrazolo[3,4-c]pyridin-6-yl)(quinoxalin-6-yl)methanone]: 2230 nM; `Cc1nc2sccn2c1C(=O)N1CCc2c(nn(C)c2-c2ccccc2)C1` [Example 32, (2-Methyl-3-phenyl-2,4,5,7-tetrahydro-6H-pyrazolo[3,4-c]pyridin-6-yl)(6-methylimidazo[2,1-b]thiazol-5-yl)methanone]: 1090 nM. Consider `C[C@H]1c2nn(C)c(-c3cc(F)c(F)c(F)c3)c2CCN1C(=O)c1ccc2c(cnn2C)c1` [Example 211, (S)-(2,7-Dimethyl-3-(3,4,5-trifluorophenyl)-2,4,5,7-tetrahydro-6H-pyrazolo[3,4-c]pyridin-6-yl)(1-methyl-1H-indazol-5-yl)methanone], for which half-maximal inhibition (IC50) was put at 72.2 nM. The same measure, in the same setting: next, `C[C@H]1c2nn(C)c(-c3cc(F)c(F)c(F)c3)c2CCN1C(=O)c1ccccc1-n1cncn1` [Example 279, [(7S)-2,7-Dimethyl-3-(3,4,5-trifluorophenyl)-5,7-dihydro-4H-pyrazolo[3,4-c]pyridin-6-yl]-[2-(1,2,4-triazol-1-yl)phenyl]methanone]: 7.34 nM; `Cn1nc2c(c1-c1ccccc1)CCN(C(=O)c1ccc3ncoc3c1)C2` [Example 56, Benzo[d]oxazol-6-yl(2-methyl-3-phenyl-2,4,5,7-tetrahydro-6H-pyrazolo[3,4-c]pyridin-6-yl)methanone]: 293 nM.

Take `C[C@H]1c2nn(C)c(-c3cc(F)c(F)c(F)c3)c2CCN1C(=O)c1ccc(F)cc1-n1nccn1` [Example 196, (S)-(2,7-Dimethyl-3-(3,4,5-trifluorophenyl)-2,4,5,7-tetrahydro-6H-pyrazolo[3,4-c]pyridin-6-yl)(4-fluoro-2-(2H-1,2,3-triazol-2-yl)phenyl)methanone]: the IC50 was found to be 307 nM. For the compound `C[C@H]1c2nn(C)c(-c3cc(F)c(F)c(F)c3)c2CCN1C(=O)c1cncc2cccnc12` [Example 246, (S)-(2,7-Dimethyl-3-(3,4,5-trifluorophenyl)-2,4,5,7-tetrahydro-6H-pyrazolo[3,4-c]pyridin-6-yl)(1,6-naphthyridin-8-yl)methanone], the IC50 is 20 nM. `Cn1nc2c(c1-c1ccccc1)CCN(C(=O)c1cccc3cnccc13)C2` [Example 92, Isoquinolin-5-yl(2-methyl-3-phenyl-2,4,5,7-tetrahydro-6H-pyrazolo[3,4-c]pyridin-6-yl)methanone] came in with an IC50 of 108 nM. Same read-out and setting: next, `C[C@H]1c2nn(C)c(-c3cc(F)c(F)c(F)c3)c2CCN1C(=O)c1cc(F)cc(-n2cncn2)c1` [Example 277, [(7S)-2,7-Dimethyl-3-(3,4,5-trifluorophenyl)-5,7-dihydro-4H-pyrazolo[3,4-c]pyridin-6-yl]-[3-fluoro-5-(1,2,4-triazol-1-yl)phenyl]methanone]: 22 nM; `CC1c2nn(C)c(-c3cc(F)cc(F)c3)c2CCN1C(=O)c1ncn(-c2ccccc2)n1` (stereo not drawn) [Example 148, (3-(3,5-Difluorophenyl)-2,7-dimethyl-2,4,5,7-tetrahydro-6H-pyrazolo[3,4-c]pyridin-6-yl)(1-phenyl-1H-1,2,4-triazol-3-yl)methanone]: 67.1 nM.
